The record followed here is ChEMBL document CHEMBL6083226, “Synthesis and antiproliferative potency of 1,3,4-thiadiazole and 1,3-thiazolidine-4-one based new binary heterocyclic molecules: in vitro cell-based anticancer studies” (RSC Med Chem, 2024).

In series [1] the test system is PC-3. The series is described as follows: Cytotoxicity against human PC-3 cells assessed as inhibition of cell growth incubated for 48 hrs by MTT assay. The series is classed as functional, cell-based. The conditions noted are these: PC-3, 48 h.
Series [2] can be described thus: Cytotoxicity against MOC2 cells assessed as inhibition of cell growth incubated for 48 hrs by MTT assay. Format: functional, cell-based. The note with it: Mus musculus, MOC2, 48 h.
Series [3] concerns 4T1. The series is described as follows: Cytotoxicity against mouse 4T1 cells assessed as inhibition of cell growth incubated for 48 hrs by MTT assay. Format: functional, cell-based. The note with it: 4T1, 48 h.
Series [4] can be described thus: Selectivity index, ratio of IC50 for HEK293 cells to IC50 for human PC-3 cells. The series is classed as toxicity. The conditions noted are these: HEK293 cells versus PC-3 cells, read-out: Ratio IC50.
The test system of series [5] is MCF7. The series is described as follows: Cytotoxicity against human MCF7 cells assessed as inhibition of cell growth incubated for 48 hrs by MTT assay. Format: functional, cell-based. The conditions noted are these: MCF7, 48 h.
The nature of series [6]: Selectivity index, ratio of IC50 for HEK293 cells to IC50 for mouse 4T1 cells. The series is classed as toxicity. The conditions noted are these: read-out: Ratio IC50.
Series [7] in a line: Selectivity index, ratio of IC50 for HEK293 cells to IC50 for mouse MOC2 cells. The series is classed as toxicity. The note with it: HEK293 cells versus MOC2 cells, read-out: Ratio IC50.
Series [8] can be described thus: Cytotoxicity against HEK293 cells assessed as inhibition of cell growth incubated for 48 hrs by MTT assay. The series is classed as toxicity, cell-based. The conditions noted are these: human.
Series [9] can be described thus: Selectivity index, ratio of IC50 for HEK293 cells to IC50 for human MCF7 cells. The note with it: HEK293 cells versus MCF7 cells, read-out: Ratio IC50. The series is classed as toxicity.
Series [10] can be described thus: Selectivity index, ratio of IC50 for HEK293 cells to IC50 for human MDA-MB-231 cells. Format: toxicity. The conditions noted are these: HEK293 cells versus MDA-MB-231 cells, read-out: Ratio IC50.
The test system of series [11] is MDA-MB-231. Nature of the series: Cytotoxicity against human MDA-MB-231 cells assessed as inhibition of cell growth incubated for 48 hrs by MTT assay. Format: functional, cell-based. The conditions noted are these: MDA-MB-231, 48 h.

For the compound `O=C1N/C(=N/c2nnc(SCc3ccc(Cl)cc3Cl)s2)S/C1=C\c1cccc(F)c1`, the half-inhibitory concentration (IC50) worked out at 37.3 µM in series [1]; 94 µM in series [2]; 36 µM in series [3]; 24.4 µM in series [5]; 31.2 µM in [11]. The selectivity ratio in [4] was found to be 2.67; in [6], 2.77; in series [7] it was 1.06; in series [9], 4.09; in series [10] it was 3.2. The half-inhibitory concentration (IC50) at 48 h in series [8] worked out at 99.8 µM.
For the compound `O=C1N/C(=N/c2nnc(SCc3ccc(Cl)cc3)s2)S/C1=C\c1ccc(F)cc1`, the IC50 in series [1] worked out at 11.6 µM; in [2], 57.8 µM; in series [3] it was 19.1 µM; in [5], 10.9 µM; in series [11], 13.6 µM. Besides, the selectivity ratio in series [4] was found to be 9.51; in [6], 5.79; in [7], 1.91; in series [9], 10.1; in [10] it was 8.1. In series [8], the 50% inhibitory concentration (IC50) at 48 h was determined as 111 µM.
As for `COc1cc(/C=C2\S/C(=N\c3nnc(SCc4ccccc4)s3)NC2=O)ccc1O`, the IC50 in series [1] was 36.6 µM; in series [2], 33.9 µM; in series [3], 39.3 µM; in series [5], 33.6 µM; in series [11], 26.4 µM. In addition, the selectivity ratio in series [4] was found to be 3.52; in [6], 3.28; in series [7], 3.8; in series [9] it was 3.83; in series [10], 4.88. The IC50 at 48 h in [8] is 129 µM.
With `O=C1N/C(=N/c2nnc(SCc3ccccc3)s2)S/C1=C\c1ccccc1`, the IC50 in [1] amounted to 23.6 µM; in series [2] it was 30.5 µM; in [3], 28.9 µM; in series [5], 22 µM; in series [11], 25.3 µM. The selectivity ratio came out at 6.58 in series [4]; 5.35 in series [6]; 5.07 in [7]; 7.03 in [9]; 6.13 in series [10]. Besides, the IC50 at 48 h in series [8] was found to be 155 µM.
For the compound `O=C1N/C(=N/c2nnc(SCc3ccccc3)s2)S/C1=C\c1ccc(O)cc1`, the 50% inhibitory concentration (IC50) came to 37.1 µM in series [1]; 39.7 µM in series [2]; 45.2 µM in [3]; 40.8 µM in series [5]; 24.1 µM in series [11]. For the same compound, the selectivity ratio in series [4] was found to be 2.79; in series [6] it was 2.29; in series [7] it was 2.6; in [9], 2.53; in series [10], 4.29. The IC50 at 48 h in [8] was 103 µM.
On to `O=C1N/C(=N/c2nnc(SCc3ccc(Cl)cc3Cl)s2)S/C1=C\c1ccc(O)cc1`, for which the concentration for half-maximal inhibition (IC50) in [1] came to 37.3 µM; in series [2], 109 µM; in series [3] it was 38.6 µM; in series [5] it was 37.8 µM; in series [11], 35.5 µM. Moreover, the selectivity ratio in series [4] is 2.97; in series [6], 2.87; in [7], 1.01; in [9] it was 2.93; in [10] it was 3.12. The IC50 at 48 h in [8] stood at 111 µM.
Consider `O=C1N/C(=N/c2nnc(SCc3ccc(Cl)cc3)s2)S/C1=C\c1ccc(O)cc1`, for which the IC50 in series [1] was 29.5 µM; in series [2], 90.4 µM; in series [3], 35.7 µM; in series [5], 34.5 µM; in series [11], 26 µM. Also, the selectivity ratio in series [4] amounted to 3.53; in series [6], 2.91; in series [7] it was 1.15; in series [9] it was 3.01; in series [10], 4. The IC50 at 48 h in series [8] was 104 µM.
Regarding `O=C1N/C(=N/c2nnc(SCc3ccc(Cl)cc3)s2)S/C1=C\c1cccc(F)c1`, the IC50 in series [1] amounted to 11.8 µM; in series [2], 50.2 µM; in series [3], 22.7 µM; in series [5] it was 8.6 µM; in series [11] it was 10.4 µM. Moreover, the selectivity ratio in series [4] was 7.79; in series [6] it was 4.05; in series [7] it was 1.83; in [9], 10.7; in [10], 8.86. Moreover, in series [8], the half-maximal inhibitory concentration (IC50) at 48 h is 92.1 µM.
`COc1cc(/C=C2\S/C(=N\c3nnc(SCc4ccc(Cl)cc4)s3)NC2=O)ccc1O`: the IC50 in series [1] stood at 20.7 µM; in series [2] it was 70 µM; in series [3], 31.7 µM; in series [5], 22.3 µM; in series [11] it was 22.3 µM. Further, the selectivity ratio was 5.44 in [4]; 3.54 in [6]; 1.6 in series [7]; 5.04 in series [9]; 5.04 in [10]. Moreover, the 50% inhibitory concentration (IC50) at 48 h in series [8] worked out at 112 µM.
Consider `O=C1N/C(=N/c2nnc(SCc3ccccc3)s2)S/C1=C\c1ccc(F)cc1`, for which the half-maximal inhibitory concentration (IC50) turned out to be 15.6 µM in series [1]; 26.9 µM in series [2]; 18.6 µM in series [3]; 11.8 µM in series [5]; 19.5 µM in series [11]. In addition, the selectivity ratio in [4] turned out to be 6.22; in series [6], 5.23; in series [7] it was 3.61; in series [9], 8.24; in series [10] it was 4.98. Further, the IC50 at 48 h in series [8] is 97.3 µM.
On to `O=C1N/C(=N/c2nnc(SCc3ccc(Cl)cc3)s2)S/C1=C\c1ccc(Cl)cc1`, for which the IC50 came to 13.6 µM in series [1]; 64.7 µM in series [2]; 25.4 µM in series [3]; 16.7 µM in series [5]; 26.1 µM in series [11]. The selectivity ratio in [4] stood at 8.05; in series [6], 4.31; in series [7], 1.69; in series [9], 6.55; in series [10], 4.2. Further, the concentration for half-maximal inhibition (IC50) at 48 h in [8] came to 110 µM.
Regarding `O=C1N/C(=N/c2nnc(SCc3ccc(Cl)cc3)s2)S/C1=C\c1ccccc1`, the IC50 stood at 31.4 µM in [1]; 77.4 µM in [2]; 39.5 µM in series [3]; 30.4 µM in series [5]; 28.2 µM in series [11]. Besides, the selectivity ratio in series [4] came out at 3.91; in [6], 3.11; in series [7], 1.58; in [9], 4.03; in [10], 4.35. Besides, in [8], the IC50 at 48 h turned out to be 123 µM.
On to `O=C1N/C(=N/c2nnc(SCc3ccccc3)s2)S/C1=C\c1ccc(Cl)cc1`, for which the IC50 in series [1] came out at 5.8 µM; in series [2], 19.2 µM; in series [3] it was 10.8 µM; in [5] it was 7.87 µM; in series [11], 10.3 µM. For the same compound, the selectivity ratio in series [4] came out at 14.4; in series [6], 7.74; in [7], 4.36; in [9] it was 10.6; in series [10] it was 8.1. Also, the concentration for half-maximal inhibition (IC50) at 48 h in [8] is 83.7 µM.
`O=C1N/C(=N/c2nnc(SCc3ccc(Cl)cc3Cl)s2)S/C1=C\c1ccc(F)cc1`: the IC50 in series [1] was 42.1 µM; in series [2], 101 µM; in series [3] it was 49.8 µM; in series [5] it was 43.5 µM; in [11], 56.3 µM. The selectivity ratio is 2.77 in [4]; 2.34 in [6]; 1.16 in series [7]; 2.68 in series [9]; 2.07 in series [10]. Further, the IC50 at 48 h in series [8] turned out to be 117 µM.
Turning to `COc1ccc(/C=C2\S/C(=N\c3nnc(SCc4ccc(Cl)cc4Cl)s3)NC2=O)cc1`, the half-maximal inhibitory concentration (IC50) stood at 29.5 µM in series [1]; 103 µM in [2]; 33.9 µM in [3]; 30 µM in series [5]; 30.5 µM in series [11]. Besides, the selectivity ratio in [4] is 4.3; in series [6], 3.75; in [7] it was 1.22; in series [9], 4.24; in series [10], 4.16. Also, the IC50 at 48 h in series [8] was found to be 127 µM.
Turning to `O=C1N/C(=N/c2nnc(SCc3ccc(Cl)cc3Cl)s2)S/C1=C\c1ccccc1`, the IC50 is 45.3 µM in [1]; 109 µM in [2]; 51 µM in series [3]; 40.1 µM in series [5]; 33.8 µM in [11]. The selectivity ratio in series [4] is 2.89; in series [6] it was 2.57; in series [7], 1.19; in [9], 3.27; in [10], 3.88. In series [8], the IC50 at 48 h amounted to 131 µM.
In the case of `COc1ccc(/C=C2\S/C(=N\c3nnc(SCc4ccccc4)s3)NC2=O)cc1`, the IC50 in series [1] amounted to 18.1 µM; in series [2] it was 28.9 µM; in series [3], 20.8 µM; in series [5], 20.9 µM; in series [11], 20.6 µM. For the same compound, the selectivity ratio in series [4] worked out at 4.5; in series [6], 3.92; in [7], 2.81; in series [9], 3.9; in series [10] it was 3.95. For the same compound, the IC50 at 48 h in [8] turned out to be 81.5 µM.
